The source of these data is ChEMBL document CHEMBL5303573, “Mapping human microbiome drug metabolism by gut bacteria and their genes” (Nature, 2019).

Data set [1] can be described thus: The drug is tested on Bifidobacterium breve strain: DSM20213 for biotransformation. The drug concentrations were measured before and after a 12-h incubation by liquid-chromatography-coupled mass spectrometry (LC–MS). Particulars: 2 µM.
Data set [2] can be described thus: The drug is tested on Bifidobacterium longum subsp. Infantis strain: CCUG52486 for biotransformation. The drug concentrations were measured before and after a 12-h incubation by liquid-chromatography-coupled mass spectrometry (LC–MS). Particulars: 2 µM.
A short description of data set [3]: The drug is tested on Collinsella aerofaciens strain: ATCC25986 for biotransformation. The drug concentrations were measured before and after a 12-h incubation by liquid-chromatography-coupled mass spectrometry (LC–MS). As to conditions: 2 µM.
Data set [4] in a line: The drug is tested on Bacteroides coprophilus strain: DSM18228 for biotransformation. The drug concentrations were measured before and after a 12-h incubation by liquid-chromatography-coupled mass spectrometry (LC–MS). Particulars: 2 µM.
Data set [5] in a line: The drug is tested on Bacteroides fragilis strain: HMW615 for biotransformation. The drug concentrations were measured before and after a 12-h incubation by liquid-chromatography-coupled mass spectrometry (LC–MS). Particulars: 2 µM.
A short description of data set [6]: The drug is tested on Bacteroides ovatus strain: ATCC8483 for biotransformation. The drug concentrations were measured before and after a 12-h incubation by liquid-chromatography-coupled mass spectrometry (LC–MS). Particulars: 2 µM.
Data set [7] can be described thus: The drug is tested on Bacteroides sp. WH2 strain: WH2 for biotransformation. The drug concentrations were measured before and after a 12-h incubation by liquid-chromatography-coupled mass spectrometry (LC–MS). Particulars: bacteroides sp. wh2, 12 h, 2 µM.
Data set [8] is described as follows: The drug is tested on Bacteroides xylanisolvens strain: DSM18836 for biotransformation. The drug concentrations were measured before and after a 12-h incubation by liquid-chromatography-coupled mass spectrometry (LC–MS). Particulars: 2 µM.
Data set [9] in a line: The drug is tested on Clostridium ramosum strain: DSM1402 for biotransformation. The drug concentrations were measured before and after a 12-h incubation by liquid-chromatography-coupled mass spectrometry (LC–MS). Particulars: thomasclavelia ramosa, 2 µM.
Data set [10] in a line: The drug is tested on Enterococcus faecalis strain: V583 for biotransformation. The drug concentrations were measured before and after a 12-h incubation by liquid-chromatography-coupled mass spectrometry (LC–MS). As to conditions: 2 µM.
The nature of data set [11]: The drug is tested on Eubacterium hallii strain: DSM3353 for biotransformation. The drug concentrations were measured before and after a 12-h incubation by liquid-chromatography-coupled mass spectrometry (LC–MS). Particulars: anaerobutyricum hallii, 2 µM.
Data set [12] can be described thus: The drug is tested on Eubacterium rectale strain: ATCC33656 for biotransformation. The drug concentrations were measured before and after a 12-h incubation by liquid-chromatography-coupled mass spectrometry (LC–MS). Particulars: agathobacter rectalis, 2 µM.
The nature of data set [13]: The drug is tested on Eubacterium ventriosum strain: ATCC27560 for biotransformation. The drug concentrations were measured before and after a 12-h incubation by liquid-chromatography-coupled mass spectrometry (LC–MS). The format is ADME. Further details: dose 2 uM, timepoint 0 vs 12 hours. As to conditions: 2 µM.
Data set [14] in a line: The drug is tested on Ruminococcus torques strain: ATCC27756 for biotransformation. The drug concentrations were measured before and after a 12-h incubation by liquid-chromatography-coupled mass spectrometry (LC–MS). The format is ADME. Particulars: 2 µM. Further details: dose 2 uM, timepoint 0 vs 12 hours.
Data set [15] can be described thus: The drug is tested on Escherichia coli strain: BW25113 for biotransformation. The drug concentrations were measured before and after a 12-h incubation by liquid-chromatography-coupled mass spectrometry (LC–MS). Particulars: 2 µM.
The nature of data set [16]: The drug is tested on Providencia stuartii strain: ATCC25827 for biotransformation. The drug concentrations were measured before and after a 12-h incubation by liquid-chromatography-coupled mass spectrometry (LC–MS). As to conditions: 2 µM.
The conditions of data set [17]: bifidobacterium adolescentis, 12 h, 2 µM.
Description: The drug is tested on Bifidobacterium adolescentis strain: ATCC 15703 for biotransformation. The drug concentrations were measured before and after a 12-h incubation by liquid-chromatography-coupled mass spectrometry (LC–MS)
The conditions of data set [18]: parabacteroides johnsonii, 12 h, 2 µM.
Description: The drug is tested on Parabacteroides johnsonii strain: DSM18315 for biotransformation. The drug concentrations were measured before and after a 12-h incubation by liquid-chromatography-coupled mass spectrometry (LC–MS)
The conditions of data set [19]: enterocloster bolteae, 12 h, 2 µM.
Description: The drug is tested on Clostridium bolteae strain: ATCCBAA-613 for biotransformation. The drug concentrations were measured before and after a 12-h incubation by liquid-chromatography-coupled mass spectrometry (LC–MS)
For data set [20] the following is noted: victivallis vadensis, 12 h, 2 µM.
Description: The drug is tested on Victivallis vadensis strain: ATCC BAA-548 for biotransformation. The drug concentrations were measured before and after a 12-h incubation by liquid-chromatography-coupled mass spectrometry (LC–MS)

With `COc1ccnc(C[S+]([O-])c2nc3ccc(OC(F)F)cc3[nH]2)c1OC` (stereo not given) [PANTOPRAZOLE], the “Bacterial Biotransformation” value in data set [1], in data set [2], in data set [3], in data set [4], in data set [5] and in [6] was “Compound metabolized” each time. The “Bacterial Biotransformation” value in data set [7], in data set [8], in [9], in [10], in data set [11] and in data set [12] was “Compound metabolized” in each case. The “Bacterial Biotransformation” value in [13], in [14], in [15], in data set [16], in [17] and in [18] was “Compound metabolized” each time. For the same molecule, the “Bacterial Biotransformation” value in [19] and in data set [20] was “Compound metabolized” throughout.
With `CC(=O)OCC(=O)NCCCOc1cccc(CN2CCCCC2)c1` [ROXATIDINE ACETATE], the “Bacterial Biotransformation” value in data set [1], in [2], in data set [3], in data set [4], in data set [5] and in data set [6] was “Compound metabolized” in each case. In addition, the “Bacterial Biotransformation” value in data set [7] is reported as “Compound metabolized”; in data set [8] it was “Compound metabolized”; in [9], “Compound metabolized”; in data set [10], “Compound metabolized”; in [11], “Compound NOT metabolized”; in data set [12], “Compound NOT metabolized”. The “Bacterial Biotransformation” value in data set [13], in [14], in [15], in [16], in data set [17] and in data set [18] was “Compound metabolized” throughout. For the same molecule, the “Bacterial Biotransformation” value in data set [19] and in [20] was “Compound metabolized” in each case.
Consider `CN1CCN(CC/C=C2/c3ccccc3Sc3ccc(S(=O)(=O)N(C)C)cc32)CC1` [THIOTHIXENE], for which the “Bacterial Biotransformation” value in data set [1] was “Compound metabolized”; in data set [2], “Compound NOT metabolized”; in data set [3] it was “Compound metabolized”; in data set [4] it was “Compound NOT metabolized”; in data set [5], “Compound NOT metabolized”; in data set [6], “Compound NOT metabolized”. Also, the “Bacterial Biotransformation” value in data set [7] is listed as “Compound NOT metabolized”; in data set [8], “Compound metabolized”; in data set [9] it was “Compound metabolized”; in data set [10], “Compound NOT metabolized”; in data set [11], “Compound NOT metabolized”; in data set [12], “Compound NOT metabolized”. Also, the “Bacterial Biotransformation” value is recorded as “Compound metabolized” in data set [13]; “Compound NOT metabolized” in data set [14]; “Compound NOT metabolized” in [15]; “Compound metabolized” in data set [16]; “Compound NOT metabolized” in data set [17]; “Compound metabolized” in data set [18]. For the same molecule, the results for the “Bacterial Biotransformation” value in data set [19] and in data set [20] were “Compound metabolized” and “Compound NOT metabolized”, respectively.
